This assay concerns PMN isolated from a healthy donor. Description: FACS of untreated or Thapsigargin-treated PMN for LOX-1 expression. The note with it: 1 μM Thapsigargin (THG). Format: cell-based, human. The procedure: FIGS. 10A and 10B show FACS analyses of PMN cells showing the expression of LOX-1. Representative histograms of untreated or Thapsigargin (THG)-treated cells were stained after incubating with anti-LOX-1 antibody (Ab) are shown. Percentage of LOX-1^+ PMN and expression of LOX-1 in PMN isolated from a healthy donor and treated with 1 μM […] and 1 mM Dithiothreitol (DTT). Representative LOX-1 expression level with anti-LOX-1 and commercial Abs. Representative LOX-1 expression level with DMAb derived Abs. Summary of data derived from FACS analysis of LOX-1 level is expressed as the % of LOX-1^+/CD15^+.

Regarding `C/C=C(/C)C(=O)O[C@H]1C(C)=C2[C@H]([C@@H]1OC(=O)CCCCCCC)[C@@](C)(OC(C)=O)C[C@H](OC(=O)CCC)[C@@]1(O)[C@H]2OC(=O)[C@@]1(C)O` [THG, Thapsigargin], the “percentage of LOX-1+ PMN (% of LOX-1+/CD15+)” value is listed as “Higher percentages of PMN expressed LOX-1”.

(Values after patent US20220381787A1, “NOVEL LOX-1 ANTIBODY COMPOSITIONS, LOX1 NEUTRALIZATION ASSAY AND METHODS OF TREATMENT USING SAME” (The Wistar Institute of Anatomy and Biology, priority 2019, published 2022).)
